Reference: ChEMBL document CHEMBL1201862, “PubChem BioAssay data set” (2004)
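Cultured in 96-well plates, cells were exposed to test compound for 48 hours across five concentrations. GI50 is the concentration that inhibits growth by half.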 Active and inactive are the calls of the source. Cut-off read from the data, not from the text of the source: active = GI50 up to about 1.1 µM and inactive = higher.

Legend:
Assay in all cases: inhibition of tumour cell growth, NCI panel, 48 h
HCT-116 = tested on: HCT-116
HCT-15 = tested on: HCT-15
HT-29 = tested on: HT-29
IGROV-1 = tested on: IGROV-1
K562 = tested on: K562
MDA-MB-231 = tested on: MDA-MB-231
MDA-MB-435 = tested on: MDA-MB-435
MOLT-4 = tested on: MOLT-4
Malme-3M = tested on: Malme-3M
NCI-H23 = tested on: NCI-H23
NCI-H522 = tested on: NCI-H522
OVCAR-8 = tested on: OVCAR-8
PC-3 = tested on: PC-3
RPMI-8226 = tested on: RPMI-8226
SK-MEL-28 = tested on: SK-MEL-28
SK-MEL-2 = tested on: SK-MEL-2
SK-MEL-5 = tested on: SK-MEL-5
SNB-19 = tested on: SNB-19
U-251 = tested on: U-251
SF-295 = tested on: SF-295

| Compound | GI50 (HCT-116) | GI50 (HCT-15) [µM] | GI50 (HT-29) | GI50 (IGROV-1) | GI50 (K562) | GI50 (MDA-MB-231) | GI50 (MDA-MB-435) | GI50 (MOLT-4) | GI50 (Malme-3M) | GI50 (NCI-H23) | GI50 (NCI-H522) | GI50 (OVCAR-8) | GI50 (PC-3) | GI50 (RPMI-8226) | GI50 (SK-MEL-28) | GI50 (SK-MEL-2) | GI50 (SK-MEL-5) | GI50 (SNB-19) | GI50 (U-251) | GI50 (SF-295) |
| --- | --- | --- | --- | --- | --- | --- | --- | --- | --- | --- | --- | --- | --- | --- | --- | --- | --- | --- | --- | --- |
| O=c1[nH]n(Cc2ccccc2Cl)c2ccccc12 | > 100 µM (inactive) | > 100 | > 100 µM (inactive) | > 100 µM (inactive) | > 100 µM (inactive) | > 100 µM (inactive) | > 100 µM (inactive) | > 100 µM (inactive) | > 100 µM (inactive) | > 100 µM (inactive) | > 100 µM (inactive) | > 100 µM (inactive) | > 100 µM (inactive) | > 100 µM (inactive) | > 100 µM (inactive) | > 100 µM (inactive) | > 100 µM (inactive) | > 100 µM (inactive) | > 100 µM (inactive) | – |
| N=c1oc2ccc([N+](=O)[O-])cc2cc1C(=O)Nc1ccccn1 | 32.4 µM (inactive) | 44.3 | 49.8 µM (inactive) | 31.7 µM (inactive) | > 100 µM (inactive) | 21.6 µM (inactive) | 37.6 µM (inactive) | > 100 µM (inactive) | 21.7 µM (inactive) | 41.3 µM (inactive) | 24.5 µM (inactive) | 92.3 µM (inactive) | 12.9 µM (inactive) | 54.2 µM (inactive) | 28.8 µM (inactive) | 16.2 µM (inactive) | 93.5 µM (inactive) | 33.9 µM (inactive) | 45.5 µM (inactive) | – |
| C=C(C)CC1(O[Si](C)(C)C)C(=O)C(OCC)=C1OCC (centres undefined) | > 100 µM (inactive) | > 100 | > 100 µM (inactive) | > 100 µM (inactive) | – | > 100 µM (inactive) | > 100 µM (inactive) | > 100 µM (inactive) | > 100 µM (inactive) | > 100 µM (inactive) | > 100 µM (inactive) | > 100 µM (inactive) | > 100 µM (inactive) | – | > 100 µM (inactive) | > 100 µM (inactive) | > 100 µM (inactive) | > 100 µM (inactive) | > 100 µM (inactive) | > 100 µM (inactive) |
| CN(C)N1C(=O)SCC(c2ccccc2)(c2ccccc2)C1=O | > 100 µM (inactive) | > 100 | > 100 µM (inactive) | – | 87.7 µM (inactive) | > 100 µM (inactive) | > 100 µM (inactive) | > 100 µM (inactive) | > 100 µM (inactive) | > 100 µM (inactive) | 84.5 µM (inactive) | > 100 µM (inactive) | > 100 µM (inactive) | 78 µM (inactive) | > 100 µM (inactive) | 63.4 µM (inactive) | > 100 µM (inactive) | > 100 µM (inactive) | > 100 µM (inactive) | > 100 µM (inactive) |
| O=[N+]([O-])/C=C/c1cn(CCCCCCCCCCCCn2cc(/C=C/[N+](=O)[O-])c3ccccc32)c2ccccc12 | > 100 µM (inactive) | > 100 | > 100 µM (inactive) | > 100 µM (inactive) | – | > 100 µM (inactive) | > 100 µM (inactive) | > 100 µM (inactive) | > 100 µM (inactive) | > 100 µM (inactive) | > 100 µM (inactive) | > 100 µM (inactive) | > 100 µM (inactive) | > 100 µM (inactive) | > 100 µM (inactive) | > 100 µM (inactive) | > 100 µM (inactive) | – | > 100 µM (inactive) | – |
| O=c1[nH]/c(=C/c2ccc(OCc3ccccc3)cn2)c(=O)[nH]/c1=C/c1ccccc1 | 0.146 µM (active) | 0.135 | 0.12 µM (active) | 0.207 µM (active) | 0.141 µM (active) | 0.59 µM (active) | 0.0434 µM (active) | 0.327 µM (active) | – | 0.107 µM (active) | 0.0942 µM (active) | 0.189 µM (active) | 0.141 µM (active) | 0.123 µM (active) | > 100 µM (inactive) | – | 0.106 µM (active) | 0.157 µM (active) | 0.119 µM (active) | 0.107 µM (active) |
| Cc1nn(-c2ccccc2)c2c1C(c1ccc(Cl)cc1)NC(=S)N2 (centres undefined) | 20 µM (inactive) | 17.5 | 30.5 µM (inactive) | 12.6 µM (inactive) | 36.1 µM (inactive) | 16.5 µM (inactive) | 21.5 µM (inactive) | 38.6 µM (inactive) | 28.2 µM (inactive) | 18.9 µM (inactive) | 14 µM (inactive) | 22.5 µM (inactive) | 18.9 µM (inactive) | 19.1 µM (inactive) | – | 17.5 µM (inactive) | 20.3 µM (inactive) | 28.6 µM (inactive) | 19.5 µM (inactive) | 24.5 µM (inactive) |
